The target of assay [1] is Melanin-concentrating hormone receptor 1 (Homo sapiens, UniProt Q99705). The assay is described as follows: Late-stage fluorescence-based counterscreen for antagonists of the G-protein coupled receptor 7 (GPR7): cell-based dose response assay to identify antagonists of the melanin-concentrating hormone receptor 1 (MCHR1) Set 6. It is filed as functional.
Assay [2] deals with Neuropeptides B/W receptor type 1 (Homo sapiens, UniProt P48145). The assay is described as follows: human NPBW1 receptor blockade, IC50 – cell-based, fluorescence, dose response, set 6, late-stage follow-up (AID 588583). It is filed as functional.
Neuropeptides B/W receptor type 1, sequence (P48145 whole entry): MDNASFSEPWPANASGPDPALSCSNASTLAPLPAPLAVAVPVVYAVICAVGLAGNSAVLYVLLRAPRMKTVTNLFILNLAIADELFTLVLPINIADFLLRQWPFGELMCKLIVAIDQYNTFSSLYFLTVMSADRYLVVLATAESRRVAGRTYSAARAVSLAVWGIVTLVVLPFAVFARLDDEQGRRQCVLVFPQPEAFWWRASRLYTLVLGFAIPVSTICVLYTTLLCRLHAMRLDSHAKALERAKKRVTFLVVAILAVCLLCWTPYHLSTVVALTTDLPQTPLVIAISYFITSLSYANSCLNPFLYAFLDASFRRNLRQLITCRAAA
In assay [3] the target is Cyclin-dependent kinase 5/CDK5 activator 1 (Homo sapiens, UniProt Q00535). Put plainly: inhibitors of human CDK5 activity – biochemical, microfluidic mobility shift, dry powder, set 2, selectivity assay for GSK3beta inhibitor project, dose response (AID 623979). In kind it is functional.
A short description of assay [4]: Luminescence Cell-Based Dose Response HTS to Identify Inhibitors of 5'UTR Stem-Loop Driven Prion Protein mRNA Translation in H4 Neuroglioblastoma Cells. [Related pubchem assays: 1827 (Project Summary), 1813 (Primary HTS)]. It is filed as functional.
Assay [5] in a line: luciferase reporter signal suppression in cells – H4 neuroglioma cells, luminescence, dose response (AID 1990). It is filed as functional, cell-based. In general terms: A reporter such as luciferase makes a cellular process visible.
The nature of assay [6]: alpha-synuclein stem-loop luciferase translation blockers – H4 neuroglioma cells, luminescence, confirmation (AID 1988). In kind it is functional, cell-based.
Assay [7] concerns the target Glycogen synthase kinase-3 alpha (Homo sapiens, UniProt P49840). The assay is described as follows: GSK3A enzyme blockers, homolog specificity check – biochemical, microfluidics, dry powder samples, set 2, selectivity assay for GSK3beta inhibitor project, dose response (AID 623978). It is filed as functional.
Assay [8] has as its target Glycogen synthase kinase-3 beta (Homo sapiens, UniProt P49841). Put plainly: inhibition of human GSK3B activity – biochemical, microfluidics, dry powder samples, set 2, dose response (AID 623989). In kind it is functional.
Assay [9] deals with T1, Serine/threonine-protein phosphatase (Homo sapiens, UniProt Q9BPW0).
T1 sequence (Q9BPW0 whole entry): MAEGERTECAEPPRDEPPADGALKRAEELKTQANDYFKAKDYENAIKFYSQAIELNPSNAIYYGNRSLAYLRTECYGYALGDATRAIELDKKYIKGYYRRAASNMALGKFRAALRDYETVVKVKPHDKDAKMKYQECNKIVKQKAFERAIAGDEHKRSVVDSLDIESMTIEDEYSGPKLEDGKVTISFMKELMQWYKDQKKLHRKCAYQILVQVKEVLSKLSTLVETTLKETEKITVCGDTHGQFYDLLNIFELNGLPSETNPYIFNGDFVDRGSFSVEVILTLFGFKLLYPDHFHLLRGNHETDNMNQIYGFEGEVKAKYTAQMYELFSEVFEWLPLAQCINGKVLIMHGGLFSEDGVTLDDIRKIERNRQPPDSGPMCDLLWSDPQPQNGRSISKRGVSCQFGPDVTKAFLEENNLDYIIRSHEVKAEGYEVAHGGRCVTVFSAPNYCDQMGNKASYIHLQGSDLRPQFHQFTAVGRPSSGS
The assay is described as follows: inhibition of protein phosphatase 5 activity – biochemical, fluorescence, dose response (AID 2395).

In assay [10] the target is T2, Replicative DNA helicase DnaB (Mycobacterium tuberculosis, UniProt P9WMR3).
T2 sequence (P9WMR3 whole entry): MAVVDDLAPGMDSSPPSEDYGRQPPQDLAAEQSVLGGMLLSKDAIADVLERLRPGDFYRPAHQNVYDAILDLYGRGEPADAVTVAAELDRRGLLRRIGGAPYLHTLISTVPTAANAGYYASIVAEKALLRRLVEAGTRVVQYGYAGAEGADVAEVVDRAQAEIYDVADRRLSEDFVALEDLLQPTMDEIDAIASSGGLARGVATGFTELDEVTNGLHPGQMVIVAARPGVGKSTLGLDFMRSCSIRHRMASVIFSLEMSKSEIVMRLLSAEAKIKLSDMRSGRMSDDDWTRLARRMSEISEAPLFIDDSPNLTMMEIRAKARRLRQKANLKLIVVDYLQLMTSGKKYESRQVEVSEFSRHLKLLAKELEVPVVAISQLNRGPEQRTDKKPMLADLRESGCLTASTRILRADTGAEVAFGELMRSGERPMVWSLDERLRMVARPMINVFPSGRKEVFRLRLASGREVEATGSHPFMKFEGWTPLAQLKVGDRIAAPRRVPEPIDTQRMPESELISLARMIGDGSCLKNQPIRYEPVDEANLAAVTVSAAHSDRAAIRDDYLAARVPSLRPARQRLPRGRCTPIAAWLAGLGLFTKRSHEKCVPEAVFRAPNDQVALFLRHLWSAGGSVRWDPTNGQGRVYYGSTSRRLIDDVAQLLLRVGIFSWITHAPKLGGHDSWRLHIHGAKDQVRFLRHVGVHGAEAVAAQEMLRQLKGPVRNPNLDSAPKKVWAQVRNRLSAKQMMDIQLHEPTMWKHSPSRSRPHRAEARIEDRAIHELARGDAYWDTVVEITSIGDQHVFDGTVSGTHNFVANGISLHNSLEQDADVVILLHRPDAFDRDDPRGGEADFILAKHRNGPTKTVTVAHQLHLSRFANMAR
Put plainly: DnaB intein splicing inhibitors, dose response, biochemical, cell-free fluorescence (AID 449749). It is filed as functional.

The target in assay [11] is T3, High affinity choline transporter 1 (Homo sapiens, UniProt Q9GZV3).
T3 sequence (Q9GZV3 whole entry): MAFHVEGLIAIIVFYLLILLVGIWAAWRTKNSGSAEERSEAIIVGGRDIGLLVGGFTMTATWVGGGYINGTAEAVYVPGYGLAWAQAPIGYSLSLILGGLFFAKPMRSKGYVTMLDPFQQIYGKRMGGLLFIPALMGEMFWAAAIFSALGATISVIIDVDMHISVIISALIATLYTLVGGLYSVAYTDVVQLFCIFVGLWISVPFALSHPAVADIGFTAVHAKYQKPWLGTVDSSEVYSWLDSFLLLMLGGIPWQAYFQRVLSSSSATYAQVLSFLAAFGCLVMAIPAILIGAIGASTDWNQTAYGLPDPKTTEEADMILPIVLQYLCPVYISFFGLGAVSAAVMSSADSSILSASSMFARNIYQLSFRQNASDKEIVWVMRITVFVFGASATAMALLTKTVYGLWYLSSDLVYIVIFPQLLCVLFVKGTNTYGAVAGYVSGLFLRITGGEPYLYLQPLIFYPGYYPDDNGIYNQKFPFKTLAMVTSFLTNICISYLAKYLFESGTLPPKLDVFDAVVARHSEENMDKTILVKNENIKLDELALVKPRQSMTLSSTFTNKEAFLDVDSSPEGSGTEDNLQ
Put plainly: human choline transporter blockers, potency – cell-based, 5-point CRC, membrane potential dye, dose response (AID 504840). It is filed as functional.

For assay [12], the target named is Serine/threonine-protein phosphatase PP1-alpha catalytic subunit (Homo sapiens, UniProt P62136). The assay is described as follows: inhibition of protein phosphatase 1 activity – biochemical, fluorescence, dose response (AID 2394).
Serine/threonine-protein phosphatase PP1-alpha catalytic subunit, sequence (P62136 whole entry): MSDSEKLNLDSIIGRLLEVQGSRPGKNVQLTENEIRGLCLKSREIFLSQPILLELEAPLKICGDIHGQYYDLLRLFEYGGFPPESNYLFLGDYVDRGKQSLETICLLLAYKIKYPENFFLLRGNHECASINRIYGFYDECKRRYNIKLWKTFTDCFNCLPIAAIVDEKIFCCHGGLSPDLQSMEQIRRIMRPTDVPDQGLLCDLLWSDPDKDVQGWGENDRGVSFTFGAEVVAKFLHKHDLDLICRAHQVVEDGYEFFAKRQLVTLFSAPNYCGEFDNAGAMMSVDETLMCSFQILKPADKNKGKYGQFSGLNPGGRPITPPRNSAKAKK
Assay [13] addresses T3, High affinity choline transporter 1. Put plainly: human choline transporter blockers, potency – cell-based, 10-point CRC, membrane potential dye, dose response (AID 588401).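 Note: membrane potential dye fluorescence of choline-evoked depolarization via CHT.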 It is filed as functional.
For assay [14], the target named is T4, Fatty acid synthase (Homo sapiens, UniProt P49327). The assay is described as follows: inhibition of human FAS-TE enzyme activity – biochemical, endpoint fluorescence intensity, uHTS hits, dose response (AID 624327).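 Note: fluorescence from hydrolysis of an O-methyl fluorescein acyl ester substrate by the enzyme.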 It is filed as functional.
T4 sequence (P49327 whole entry): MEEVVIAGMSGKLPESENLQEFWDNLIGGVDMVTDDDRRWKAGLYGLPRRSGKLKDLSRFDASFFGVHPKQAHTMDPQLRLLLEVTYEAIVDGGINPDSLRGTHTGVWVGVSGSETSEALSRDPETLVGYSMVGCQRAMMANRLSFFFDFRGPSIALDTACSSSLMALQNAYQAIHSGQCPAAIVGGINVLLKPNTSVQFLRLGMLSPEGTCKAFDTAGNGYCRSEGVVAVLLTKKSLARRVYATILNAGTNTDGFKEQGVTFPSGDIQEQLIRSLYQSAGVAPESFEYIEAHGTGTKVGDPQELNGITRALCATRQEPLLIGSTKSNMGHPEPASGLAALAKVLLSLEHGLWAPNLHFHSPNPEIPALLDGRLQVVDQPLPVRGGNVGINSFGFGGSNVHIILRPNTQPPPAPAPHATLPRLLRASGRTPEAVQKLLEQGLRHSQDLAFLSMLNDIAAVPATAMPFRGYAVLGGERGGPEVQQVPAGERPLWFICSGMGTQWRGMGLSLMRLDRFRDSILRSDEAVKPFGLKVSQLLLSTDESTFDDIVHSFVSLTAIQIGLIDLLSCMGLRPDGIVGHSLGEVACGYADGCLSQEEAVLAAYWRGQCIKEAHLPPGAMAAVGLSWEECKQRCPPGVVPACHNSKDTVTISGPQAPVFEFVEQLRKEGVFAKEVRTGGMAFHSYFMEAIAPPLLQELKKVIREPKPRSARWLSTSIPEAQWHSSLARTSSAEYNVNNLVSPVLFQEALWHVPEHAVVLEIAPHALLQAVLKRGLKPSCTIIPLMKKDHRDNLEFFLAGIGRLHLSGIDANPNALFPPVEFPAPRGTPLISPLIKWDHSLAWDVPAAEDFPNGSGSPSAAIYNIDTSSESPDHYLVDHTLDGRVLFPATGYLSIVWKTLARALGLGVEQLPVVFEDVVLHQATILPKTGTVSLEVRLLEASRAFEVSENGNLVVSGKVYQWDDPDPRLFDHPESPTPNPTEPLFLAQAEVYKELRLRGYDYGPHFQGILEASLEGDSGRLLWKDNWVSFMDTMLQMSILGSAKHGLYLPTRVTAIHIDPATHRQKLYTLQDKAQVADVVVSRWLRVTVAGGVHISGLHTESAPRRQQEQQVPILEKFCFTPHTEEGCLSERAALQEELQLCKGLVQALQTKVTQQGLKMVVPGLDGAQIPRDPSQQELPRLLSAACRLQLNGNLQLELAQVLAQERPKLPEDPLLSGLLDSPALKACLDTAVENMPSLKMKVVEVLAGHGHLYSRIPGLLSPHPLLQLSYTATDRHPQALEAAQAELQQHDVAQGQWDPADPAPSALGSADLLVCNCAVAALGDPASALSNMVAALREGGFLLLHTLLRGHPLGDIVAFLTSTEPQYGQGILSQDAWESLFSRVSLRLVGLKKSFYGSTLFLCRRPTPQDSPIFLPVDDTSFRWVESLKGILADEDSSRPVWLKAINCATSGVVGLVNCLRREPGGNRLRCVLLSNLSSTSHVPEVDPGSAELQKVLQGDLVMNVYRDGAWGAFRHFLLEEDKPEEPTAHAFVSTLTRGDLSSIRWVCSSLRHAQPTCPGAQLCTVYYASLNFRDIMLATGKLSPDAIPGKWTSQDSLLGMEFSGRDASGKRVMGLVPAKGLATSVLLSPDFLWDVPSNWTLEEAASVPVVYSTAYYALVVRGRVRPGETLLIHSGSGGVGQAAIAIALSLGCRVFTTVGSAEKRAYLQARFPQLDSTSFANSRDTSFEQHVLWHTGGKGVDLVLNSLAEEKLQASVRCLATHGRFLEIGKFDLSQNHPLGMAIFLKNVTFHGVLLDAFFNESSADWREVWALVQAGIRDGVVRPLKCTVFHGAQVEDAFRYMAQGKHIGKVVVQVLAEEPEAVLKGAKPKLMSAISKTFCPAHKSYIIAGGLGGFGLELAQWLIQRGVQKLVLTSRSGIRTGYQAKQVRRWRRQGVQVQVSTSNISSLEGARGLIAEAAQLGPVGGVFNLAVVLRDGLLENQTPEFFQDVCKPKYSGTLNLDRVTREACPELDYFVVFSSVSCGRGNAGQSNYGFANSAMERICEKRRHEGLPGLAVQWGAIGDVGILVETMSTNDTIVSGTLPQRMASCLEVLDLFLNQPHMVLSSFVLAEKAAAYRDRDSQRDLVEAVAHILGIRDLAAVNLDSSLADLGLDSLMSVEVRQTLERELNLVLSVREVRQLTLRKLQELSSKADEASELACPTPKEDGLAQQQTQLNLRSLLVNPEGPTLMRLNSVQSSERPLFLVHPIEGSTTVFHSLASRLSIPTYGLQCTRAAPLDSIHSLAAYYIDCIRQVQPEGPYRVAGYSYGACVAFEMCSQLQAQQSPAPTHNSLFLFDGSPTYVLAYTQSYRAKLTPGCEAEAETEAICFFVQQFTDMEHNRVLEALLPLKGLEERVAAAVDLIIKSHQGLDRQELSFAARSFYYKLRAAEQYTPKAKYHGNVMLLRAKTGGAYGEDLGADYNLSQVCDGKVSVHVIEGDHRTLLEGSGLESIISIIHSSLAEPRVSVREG
Another assay addresses Genome polyprotein (dengue virus type 2, UniProt P29990). The assay is described as follows: flavivirus cap methylation enzyme inhibition – biochemical, confirmation dose response, primary screen (AID 588689). It is filed as functional.
The target of assay [15] is T4, Fatty acid synthase. The assay is described as follows: inhibition of human FAS-TE enzyme activity – biochemical, kinetic fluorescence intensity, dose response (AID 624326).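 Note: rate of fluorescence rise from hydrolysis of a fluorogenic O-methyl fluorescein ester substrate.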 In kind it is functional.
The target in another assay is T5, Protein RecA (Mycobacterium tuberculosis, UniProt P9WHJ3).
T5 sequence (P9WHJ3 whole entry): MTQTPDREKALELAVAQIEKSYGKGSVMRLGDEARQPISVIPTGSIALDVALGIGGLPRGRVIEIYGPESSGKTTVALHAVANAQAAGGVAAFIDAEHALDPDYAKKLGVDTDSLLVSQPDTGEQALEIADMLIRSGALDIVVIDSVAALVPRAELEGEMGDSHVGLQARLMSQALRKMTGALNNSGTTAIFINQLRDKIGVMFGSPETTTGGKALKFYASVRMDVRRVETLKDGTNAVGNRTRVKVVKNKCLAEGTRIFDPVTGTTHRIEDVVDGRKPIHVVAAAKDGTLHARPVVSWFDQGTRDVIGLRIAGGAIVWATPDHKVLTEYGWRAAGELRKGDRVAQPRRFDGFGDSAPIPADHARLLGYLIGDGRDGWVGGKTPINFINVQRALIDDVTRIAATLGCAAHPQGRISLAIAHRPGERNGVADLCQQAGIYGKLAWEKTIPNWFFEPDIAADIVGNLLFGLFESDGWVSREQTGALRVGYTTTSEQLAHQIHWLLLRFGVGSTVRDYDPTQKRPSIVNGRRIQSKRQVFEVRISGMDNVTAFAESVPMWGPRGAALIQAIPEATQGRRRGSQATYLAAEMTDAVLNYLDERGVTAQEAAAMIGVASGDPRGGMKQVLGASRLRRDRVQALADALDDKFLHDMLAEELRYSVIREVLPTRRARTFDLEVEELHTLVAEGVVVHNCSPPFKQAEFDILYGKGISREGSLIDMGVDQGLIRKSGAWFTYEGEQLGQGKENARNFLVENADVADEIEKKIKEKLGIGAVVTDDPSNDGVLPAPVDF
The assay is described as follows: Fluorescence Cell-Free Homogeneous Dose Retest to Identify Inhibitors of RecA-Intein Splicing Activity. [Related pubchem assays (depositor defined):AID2097, AID2223, AID489010, AID492950]. It is filed as functional.

The source made the active and inactive calls.

Melanin-concentrating hormone receptor 1, sequence (Q99705 whole entry): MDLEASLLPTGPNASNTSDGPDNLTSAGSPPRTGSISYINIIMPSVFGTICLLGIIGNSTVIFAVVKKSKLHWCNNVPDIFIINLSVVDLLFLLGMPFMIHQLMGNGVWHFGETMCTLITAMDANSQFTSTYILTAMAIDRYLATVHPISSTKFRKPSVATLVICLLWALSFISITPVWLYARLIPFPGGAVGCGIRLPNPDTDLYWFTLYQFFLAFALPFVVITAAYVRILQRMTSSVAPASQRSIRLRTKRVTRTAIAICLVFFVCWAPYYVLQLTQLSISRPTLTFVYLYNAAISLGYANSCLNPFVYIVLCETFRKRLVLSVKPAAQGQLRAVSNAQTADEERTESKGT
Glycogen synthase kinase-3 beta, sequence (P49841 whole entry): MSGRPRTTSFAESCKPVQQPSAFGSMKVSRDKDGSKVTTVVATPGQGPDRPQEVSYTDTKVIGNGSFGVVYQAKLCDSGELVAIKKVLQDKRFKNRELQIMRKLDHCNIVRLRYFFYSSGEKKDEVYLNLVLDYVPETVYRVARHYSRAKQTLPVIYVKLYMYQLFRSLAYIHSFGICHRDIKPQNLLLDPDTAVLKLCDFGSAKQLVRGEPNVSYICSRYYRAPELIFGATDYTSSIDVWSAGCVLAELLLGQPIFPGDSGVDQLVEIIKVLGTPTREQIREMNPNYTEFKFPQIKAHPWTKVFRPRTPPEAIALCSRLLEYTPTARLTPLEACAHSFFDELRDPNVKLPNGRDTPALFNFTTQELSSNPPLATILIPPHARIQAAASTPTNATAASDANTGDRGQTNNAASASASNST
Genome polyprotein, sequence (P29990 2492-3391 limits assumed): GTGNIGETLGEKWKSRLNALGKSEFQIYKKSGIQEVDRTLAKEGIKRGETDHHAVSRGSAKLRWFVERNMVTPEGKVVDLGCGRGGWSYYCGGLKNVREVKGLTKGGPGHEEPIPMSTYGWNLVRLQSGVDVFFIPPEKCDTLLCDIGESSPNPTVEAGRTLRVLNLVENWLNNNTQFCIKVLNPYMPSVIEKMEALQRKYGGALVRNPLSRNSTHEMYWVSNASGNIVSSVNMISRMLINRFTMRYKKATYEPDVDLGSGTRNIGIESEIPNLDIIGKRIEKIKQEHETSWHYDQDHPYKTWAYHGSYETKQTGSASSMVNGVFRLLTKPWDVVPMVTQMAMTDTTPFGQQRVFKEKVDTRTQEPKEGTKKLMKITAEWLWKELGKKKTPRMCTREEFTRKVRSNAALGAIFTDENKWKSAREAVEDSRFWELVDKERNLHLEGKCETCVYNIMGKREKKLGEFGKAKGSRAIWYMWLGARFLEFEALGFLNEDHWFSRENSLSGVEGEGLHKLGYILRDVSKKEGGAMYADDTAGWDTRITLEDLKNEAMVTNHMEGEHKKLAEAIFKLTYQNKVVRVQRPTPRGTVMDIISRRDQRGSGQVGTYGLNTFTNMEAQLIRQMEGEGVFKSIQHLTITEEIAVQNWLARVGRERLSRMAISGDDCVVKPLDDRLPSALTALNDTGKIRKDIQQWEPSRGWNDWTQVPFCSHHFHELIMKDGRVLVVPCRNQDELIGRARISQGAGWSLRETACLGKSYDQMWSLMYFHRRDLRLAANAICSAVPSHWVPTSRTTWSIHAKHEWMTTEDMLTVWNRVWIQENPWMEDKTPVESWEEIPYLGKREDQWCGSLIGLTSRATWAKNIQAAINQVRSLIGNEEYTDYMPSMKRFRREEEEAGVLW

With `COc1ccc(Oc2c(Cl)cnn(CC(=O)Nc3ccccc3-c3ccccc3)c2=O)cc1`, the IC50 in assay [1] and in assay [2] was 1.14 µM (active) throughout.
`CCOc1cccc(-c2c(C(=O)N/N=C/c3sccc3C)nnn2-c2nonc2N)c1`: the AC50 (in general, the concentration at which the activity in the assay is half-maximal) in assay [3] was 4.07 µM (active); in [7], 0.474 µM (active); in [8], 0.197 µM (active). For the same compound, the EC50 (as a rule, the midpoint of the concentration-response curve) in assay [4] was 15.6 µM (active); in assay [5], > 120 µM (not active); in [6] it was 82.2 µM (active).
As to `Cc1[nH]n(-c2ccccc2)c(=O)c1C(c1ccc([N+](=O)[O-])cc1)c1c(C)[nH]n(-c2ccccc2)c1=O`, the half-maximal inhibitory concentration (IC50) (as a rule, the concentration needed to halve the response being measured) in assay [9] was 9.57 µM (active); in assay [11] it was 10.3 µM (active); in [12], 29.9 µM (not active); in assay [13], 2.82 µM (active); on Fatty acid synthase [14] it was 3.19 µM (active); at Genome polyprotein it was 33.2 µM (active). The half-inhibitory concentration (IC50) on Fatty acid synthase [15] was 5.6 µM (active). The AC50 in assay [10] is 1.24 µM (active). Moreover, at Protein RecA, the concentration for a half-maximal effect (EC50) is 0.39 µM (active).

These data come from ChEMBL document CHEMBL1201862, “PubChem BioAssay data set” (2004).
